For data set [1], the system named is HG23 cells. Briefly: Nonspecific cytotoxic effects in HG23 cells. The class given is cell-based. The following applies: cytotoxic dose for 50% cell death (CC50), 1 to 100 μM, 48 h, CytoTox 96 kit and crystal violet staining, average of at least two determinations.
The target of data set [2] is NV 3CLpro (Norwalk virus, UniProt Q83883). Briefly: FRET protease assay, NV 3CLpro. In kind it is biochemical. The following applies: for Activity against NV 3CLpro and in cell based assays (in words): summary of Table 1; for Fold less active than compounds 13/25: n-pentyl chain versus m-chlorophenyl.
NV 3CLpro, sequence (Q83883 1101-1281): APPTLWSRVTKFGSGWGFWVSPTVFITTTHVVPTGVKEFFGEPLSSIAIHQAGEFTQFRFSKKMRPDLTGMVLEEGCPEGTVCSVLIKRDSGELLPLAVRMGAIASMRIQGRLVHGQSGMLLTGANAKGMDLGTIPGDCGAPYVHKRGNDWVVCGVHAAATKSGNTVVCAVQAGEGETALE

With `CC(C)C[C@@H]1NC(=O)OC(c2cccc(Cl)c2)CCCCCONC(=O)CC[C@@H](C=O)NC1=O` (single isomer, unassigned) [Compound 36A], the “TC50 (EC50)” value in data set [1] came out at 68.3 µM. Consider `CC(C)C[C@@H]1NC(=O)OC(c2cccc(Cl)c2)CCCCCONC(=O)CC[C@@H](C=O)NC1=O` (single isomer, unassigned) [Compound 36B], for which the “TC50 (EC50)” value in data set [1] worked out at 73.8 µM. The same measure, in the same setting: to `O=C[C@@H]1CCC(=O)NCCCCCC(c2cccc(Cl)c2)OC(=O)N[C@@H](CC2CCCCC2)C(=O)N1` (stereo partly drawn) [14(major), (4S, 7S)-17-(3-Chlorophenyl)-4-(cyclohexylmethyl)-2,5,10-trioxo-1-oxa-3,6,11-triazacycloheptadecane-7-carbaldehyde] belongs 62.4 µM. Consider `O=C[C@@H]1CCC(=O)NCCCCCC(c2cccc(Cl)c2)OC(=O)N[C@@H](CC2CCCCC2)C(=O)N1` (stereo partly drawn) [14(minor), (4S, 7S)-17-(3-Chlorophenyl)-4-(cyclohexylmethyl)-2,5,10-trioxo-1-oxa-3,6,11-triazacycloheptadecane-7-carbaldehyde], for which, in data set [1], the “TC50 (EC50)” value was found to be 45.3 µM.

As to `CC(C)C[C@@H]1NC(=O)OC(c2ccccc2)CCCCCNC(=O)CC[C@@H](C=O)NC1=O` (stereo partly drawn) [Compound 11, (4S, 7S)-4-Isobutyl-2,5,10-trioxo-17-phenyl-1-oxa-3,6,11-triazacycloheptadecane-7-carbaldehyde], the “TC50 (EC50)” value in data set [1] is above 100 µM.

As to `CC(C)C[C@@H]1NC(=O)OC(Cc2ccccc2)CCCCCNC(=O)CC[C@@H](C=O)NC1=O` (stereo partly drawn) [Compound 12, (4S, 7S)-17-Benzyl-4-isobutyl-2,5,10-trioxo-1-oxa-3,6,11-triazacycloheptadecane-7-carbaldehyde], the “TC50 (EC50)” value in data set [1] is above 100 µM. The same measure, in the same setting: to `CC(C)C[C@@H]1NC(=O)OC(c2cccc(Cl)c2)CCCCCNC(=O)CC[C@@H](C=O)NC1=O` (stereo partly drawn) [Compound 13, (4S, 7S)-17-(3-Chlorophenyl)-4-isobutyl-2,5,10-trioxo-1-oxa-3,6,11-triazacycloheptadecane-7-carbaldehyde] belongs above 100 µM; to `CC(C)C[C@@H]1NC(=O)OC(c2cccc(Cl)c2)CCCCCCNC(=O)CC[C@@H](C=O)NC1=O` (stereo partly drawn) [Compound 15, (4S, 7S)-18-(3-Chlorophenyl)-4-isobutyl-2,5,10-trioxo-1-oxa-3,6,11-triazacyclooctadecane-7-carbaldehyde], 67.4 µM.

With `C[C@@H]1NC(=O)OC(c2cccc(Cl)c2)CCCCCNC(=O)CC[C@@H](C=O)NC1=O` (stereo partly drawn) [Compound 16, (4S, 7S)-17-(3-Chlorophenyl)-4-methyl-2,5,10-trioxo-1-oxa-3,6,11-triazacycloheptadecane-7-carbaldehyde], the “TC50 (EC50)” value in data set [1] was above 100 µM. `C[C@@H]1NC(=O)OC(c2cccc(Cl)c2)CCCCCCNC(=O)CC[C@@H](C=O)NC1=O` (stereo partly drawn) [Compound 17, (4S, 7S)-18-(3-Chlorophenyl)-4-methyl-2,5,10-trioxo-1-oxa-3,6,11-triazacyclooctadecane-7-carbaldehyde]: in data set [1], the “TC50 (EC50)” value was above 100 µM. For the molecule `O=C[C@@H]1CCC(=O)NCCCCCC(c2cccc(Cl)c2)OC(=O)NC2(CCCCC2)C(=O)N1` (stereo partly drawn) [Compound 18, (20S)-10-(3-Chlorophenyl)-8,17,22-trioxo-9-oxa-7,16,21-triazaspiro[5.16]docosane-20-carbaldehyde], the “Activity against NV 3CLpro and in cell based assays (in words)” value (“Activity” for short) in data set [2] was “inactive”. The “TC50 (EC50)” value in data set [1] is 62.4 µM. In the case of `O=C[C@@H]1CCC(=O)NCCCCCCC(c2cccc(Cl)c2)OC(=O)NC2(CCCCC2)C(=O)N1` (stereo partly drawn) [Compound 19, (21S)-10-(3-Chlorophenyl)-8,18,23-trioxo-9-oxa-7,17,22-triazaspiro [5.17] tricosane-21-carbaldehyde], the “Activity” value in data set [2] was “inactive”. In addition, the “TC50 (EC50)” value in data set [1] was 53.3 µM. Turning to `CC(C)C[C@@H]1NC(=O)OC(CCCc2ccccc2)CCCCCNC(=O)CC[C@@H](C=O)NC1=O` (stereo partly drawn) [Compound 20, (4S, 7S)-4-Isobutyl-2,5,10-trioxo-17-(3-phenylpropyl)-1-oxa-3,6,11-triazacycloheptadecane-7-carbaldehyde], the “TC50 (EC50)” value in data set [1] turned out to be 71.5 µM. Regarding `CCCCCC1CCCCCNC(=O)CC[C@@H](C=O)NC(=O)[C@H](CC(C)C)NC(=O)O1` (stereo partly drawn) [Compound 21, (4S, 7S)-4-Isobutyl-2,5,10-trioxo-17-pentyl-1-oxa-3,6,11-triazacycloheptadecane-7-carbaldehyde], in data set [2] (Table 1), the “Fold less active than compounds 13/25” value was ~ 2 fold. Besides, the “TC50 (EC50)” value in data set [1] came out at 72.7 µM. On to `CC(C)C[C@@H]1NC(=O)OC(Cc2ccccc2)CC/C=C/CNC(=O)CC[C@@H](C=O)NC1=O` (stereo partly drawn) [Compound 23, (4S, 7S, E)-17-Benzyl-4-isobutyl-2,5,10-trioxo-1-oxa-3,6,11-triazacycloheptadec-13-ene-7-carbaldehyde], for which the “Fold more potent than compound 12” value in data set [2] (unsaturated linker versus saturated linker, Table 1) is recorded as ~ 2 fold. Further, the “TC50 (EC50)” value in data set [1] was above 100 µM. In the case of `O=C[C@@H]1CCC(=O)NC/C=C/CCC(c2cccc(Cl)c2)OC(=O)N[C@@H](CC2CCCCC2)C(=O)N1` (stereo partly drawn) [Compound 24, (4S, 7S, E)-17-(3-Chlorophenyl)-4-(cyclohexylmethyl)-2,5,10-trioxo-1-oxa-3,6,11-triazacycloheptadec-13-ene-7-carbaldehyde], in data set [1], the “TC50 (EC50)” value was found to be 42.3 µM. `CC(C)C[C@@H]1NC(=O)OC(c2cccc(Cl)c2)CCCCCNC(=O)CC[C@@H](C(O)S(=O)(=O)[O-])NC1=O.[Na+]` (stereo partly drawn) [Compound 25, Sodium ((4S, 7S)-17-(3-chlorophenyl)-4-isobutyl-2,5,10-trioxo-1-oxa-3,6,11-triazacycloheptadecan-7-yl) (hydroxy) methanesulfonate]: the “TC50 (EC50)” value in data set [1] is above 100 µM.

For `O=C1CC[C@@H](C(O)S(=O)(=O)[O-])NC(=O)C2(CCCCC2)NC(=O)OC(c2cccc(Cl)c2)CCCCCN1.[Na+]` (stereo partly drawn) [Compound 26, Sodium ((20S)-10-(3-chlorophenyl)-8,17,22-trioxo-9-oxa-7,16,21-triazaspiro [5.16]docosan-20-yl) (hydroxy) methanesulfonate], the “Activity” value in data set [2] was “inactive”. Also, the “TC50 (EC50)” value in data set [1] was found to be 48.5 µM. For the molecule `O=C1CC[C@@H](C(O)S(=O)(=O)[O-])NC(=O)C2(CCCCC2)NC(=O)OC(c2cccc(Cl)c2)CCCCCCN1.[Na+]` (stereo partly drawn) [Compound 27, Sodium ((21S)-10-(3-chlorophenyl)-8,18,23-trioxo-9-oxa-7,17,22-triazaspiro[5.17]tricosan-21-yl) (hydroxy) methanesulfonate], the “Activity” value in data set [2] was “inactive”. Also, the “TC50 (EC50)” value in data set [1] amounted to 46.6 µM. For the molecule `CC(C)C[C@@H]1NC(=O)OC(CCCc2ccccc2)CCCCCNC(=O)CC[C@@H](C(O)S(=O)(=O)[O-])NC1=O.[Na+]` (stereo partly drawn) [Compound 28, Sodium hydroxyl ((4S, 7S)-4-isobutyl-2,5,10-trioxo-17-(3-phenylpropyl)-1-oxa-3,6,11-triazacycloheptadecan-7-yl) methanesulfonate], in data set [1], the “TC50 (EC50)” value turned out to be 69.2 µM. As to `CCCCCC1CCCCCNC(=O)CC[C@@H](C(O)S(=O)(=O)[O-])NC(=O)[C@H](CC(C)C)NC(=O)O1.[Na+]` (stereo partly drawn) [Compound 29, Sodium hydroxyl ((4S, 7S)-4-isobutyl-2,5,10-trioxo-17-pentyl-1-oxa-3,6,11-triazacycloheptadecan-7-yl) methanesulfonate], the “Fold less active than compounds 13/25” value in data set [2] (Table 1) is recorded as ~ 2 fold. The “TC50 (EC50)” value in data set [1] is 78.5 µM. With `CC(C)C[C@@H]1NC(=O)OC(c2cccc(Cl)c2)CCCCCNC(=O)CC[C@@H](C(=O)C(=O)NC2CC2)NC1=O` (stereo partly drawn) [Compound 31, 2-((4S, 7S)-17-(3-Chlorophenyl)-4-isobutyl-2,5,10-trioxo-1-oxa-3,6,11-triazacycloheptadecan-7-yl)-N-cyclopropyl-2-oxoacetamide], the “TC50 (EC50)” value in data set [1] came to 53.1 µM.

For the origin of these results see PMC5296247 (European journal of medicinal chemistry, 2016).
